This note sets out measurements from patent US20230000812A1, “IBUPROFEN ESTER PRODRUG, PHARMACEUTICAL COMPOSITION, PREPARATION METHOD AND APPLICATION” (NANJING HERON PHARMACEUTICAL SCIENCE AND TECHNOLOGY CO., …, priority 2020, published 2023).

A short description of data set [1]: In vitro human plasma metabolism (enzymolysis kinetics test in human plasma). The following applies: for metabolic rate (hydrolysis rate) in human plasma: 0-120 min, FIG. 1 and 2; for degradation rate of the peaks in human plasma: liquid chromatograms, FIG. 3-5.
Protocol: The test scheme was as follows.
The test method was as follows:
(§2) (1) a stock solution of Compound NX (where X represents a different compound number) of the present application in pure acetonitrile (40 mM) was prepared, a stock solution of flurbiprofen axetil in pure acetonitrile (40 mM) was prepared, and a stock solution of ibuprofen in pure acetonitrile (40 mM) was prepared.
(§3) (2) the stock solution of flurbiprofen axetil/ibuprofen (25 μL) was mixed with 1 mL of human plasma and vortexed for 30 s. A sample (200 μL) was taken, added with 800 μL of acetonitrile to precipitate proteins and vortexed for 1 min, and the reaction was stopped as a flurbiprofen axetil/ibuprofen control; and the stock solution of the compound of the present application (40 mM) and the stock solution of flurbiprofen axetil (40 mM) were diluted 200 times separately as prodrug controls;
(§4) (4) the stock solution of the compound of the present application in pure acetonitrile (100 μL) and the stock solution of flurbiprofen axetil in pure acetonitrile (100 μL) were mixed with 4 mL of human plasma, separately, vortexed for 30 s, and placed in an oscillating constant temperature water bath heater at 37° C. and oscillated at 200 rpm;
(§5) (6) the samples were centrifuged at 12000 rpm for 10 min at 4° C., the supernatant was taken and injected at a volume of 30 μL (through a filter membrane), and changes of a peak area were recorded;
The conditions of data set [2]: human, 0.98 mM; for Amount of Active Metabolites Produced (%): 120 min; for Remaining Amount of the Prodrug Compound (%): plasma, 2 h.
Protocol: The test scheme was as follows.
The test method was as follows:
as §2, §3, §4, §5
Data set [3] in a line: Stability of dextrorotatory enantiomers in solvents (MCT, soybean oil, phosphate buffer of Tween 80) at 80° C. It counts as physicochemical. The settings on record: for purity of the isomer: oil phase or water phase; for purity of the isomer / related substances in the oil phase / content of the related substance in the water phase: 10 days. The protocol:
Samples were placed at 80° C., and samples were taken on Day 0, 5, and 10 to determine the purity of the compounds and changes of the related substance (ibuprofen) and an isomer (levorotatory).
4.2 Determination of the related substance in accordance with high-performance liquid chromatography (Chinese Pharmacopoeia 2015 Edition General Rules 0512)
(1) Chromatographic conditions: Chromatographic column: Agilent ZORBAX SB-C8, 4.6 mm×250 mm, 5 μm; mobile phase: 0.1% phosphoric acid solution-acetonitrile (50:50); detection wavelength: 220 nm; flowrate: 1.0 mL per minute; column temperature: 40° C.
(§1) (2) Determination method: An appropriate amount of the substance was taken, accurately weighed, added with a diluent [anhydrous ethanol], shaken to be dissolved, quantitatively diluted into a solution of about 0.4 mg/mL, and vortexed for 30s. The solution was filtered with a PTFE filter membrane (0.22 μm, Jinteng) and the filtrate was used as the test solution, 10 μL was accurately measured into a liquid chromatograph and the chromatogram was recorded. In the chromatogram of the test solution, if there were impurity peaks, the results should be obtained by calculation according to a peak area normalization method.
4.3 Determination of the isomer in accordance with high-performance liquid chromatography (Chinese Pharmacopoeia 2015 Edition General Rules 0512)
as §1, with “Determination” for “(2) Determination”, “isomer” for “substance”, “[n-hexane-isopropanol (90:10)],” for “[anhydrous ethanol],”, “1.0” for “0.4”, “isomer” for “impurity”

A short description of data set [4]: Pharmacokinetics in rats after tail vein injection (Test Example 4). The settings on record: rat, in vivo. How it is done:
The whole blood was centrifuged at 8000 rpm for 5 min, and plasma samples were taken and stored at −80° C., separately.
Preparation of test solutions: the test solutions were administered through tail veins of rats at a volume of […].

The mark [5] stands for this setting: Phosphate buffer of Tween 80, 80° C., Day 0.
[6] abbreviates: Phosphate buffer of Tween 80, 80° C., Day 5.
The mark [7] stands for this setting: Phosphate buffer of Tween 80, 80° C., Day 10.

Read-outs that look alike come from different tables or passages of the source.

Take `CC(C)Cc1ccc([C@H](C)C(=O)OC(C)OC(=O)OC(C)C)cc1` (stereo partly drawn) [Compound N2S]: in data set [1] (human plasma), the “metabolic rate (hydrolysis rate) in human plasma” value (“metabolic rate (hydrolysis rate)” for short) is listed as “relatively slow metabolic rates”. Also, in data set [1] (human plasma, 37° C., 120 min), the “Remaining Amount of the Prodrug Compound (%)” value (“Remaining Amount … (%)” below) turned out to be 78.6 ± 2.6%. Also, the “degradation rate of the peaks in human plasma” value in data set [1] is “relatively slow degradation rate”.
For the compound `CC(C)Cc1ccc(C(C)C(=O)OC(C)OC(=O)OC(C)C)cc1` (stereo not drawn) [Compound N2], in data set [2], the “Amount of Active Metabolites Produced (%)” value is recorded as 10.7 ± 0.4% and the “Remaining Amount … (%)” value was 87.4 ± 5.3%.
Take `CCOC(=O)OC(C)OC(=O)[C@@H](C)c1ccc(CC(C)C)cc1` (stereo partly drawn) [Compound N6S]: the “Ibuprofen (%)” value in data set [3] (MCT, 80° C., Day 0) was 0.03%; in data set [3] (MCT, 80° C., Day 5), 0.05%; in data set [3] (MCT, 80° C., Day 10) it was 0.06%; in data set [3] (setting [5]), 2.42%; in data set [3] (setting [6]) it was 10.24%; in data set [3] (setting [7]) it was 16.98%. Besides, the “Ibuprofen (%)” value was 0.03% in data set [3] (Soybean oil, 80° C., Day 0); 0.08% in data set [3] (Soybean oil, 80° C., Day 5); 0.16% in data set [3] (Soybean oil, 80° C., Day 10). Also, the “Isomer (%)” value in data set [3] (MCT, 80° C., Day 0) was determined as 3.26%; in data set [3] (MCT, 80° C., Day 5) it was 3.47%; in data set [3] (MCT, 80° C., Day 10), 3.45%; in data set [3] (setting [5]), 3.68%; in data set [3] (setting [6]), 3.97%; in data set [3] (setting [7]), 3.88%. Besides, the “Isomer (%)” value is reported as 3.26% in data set [3] (Soybean oil, 80° C., Day 0); 3.21% in data set [3] (Soybean oil, 80° C., Day 5); 3.20% in data set [3] (Soybean oil, 80° C., Day 10). The “Purity of related Main Peak (%)” value in data set [3] (MCT, 80° C., Day 0) is given as 99.89%; in data set [3] (MCT, 80° C., Day 5), 99.88%; in data set [3] (MCT, 80° C., Day 10), 99.87%; in data set [3] (setting [5]), 97.56%; in data set [3] (setting [6]), 89.66%; in data set [3] (setting [7]) it was 82.73%. For the same compound, the “Purity of related Main Peak (%)” value stood at 99.84% in data set [3] (Soybean oil, 80° C., Day 0); 99.79% in data set [3] (Soybean oil, 80° C., Day 5); 99.47% in data set [3] (Soybean oil, 80° C., Day 10). Further, the “purity of the isomer” value in data set [3] (80° C.) is reported as “remains basically unchanged”. For the same compound, in data set [3] (80° C.), the “related substances in the oil phase” value is “remain basically unchanged”. In addition, in data set [3] (80° C.), the “content of the related substance in the water phase” value is recorded as “increases”. In addition, in data set [1] (human plasma), the “metabolic rate (hydrolysis rate)” value is recorded as “relatively fast metabolic rates close to that of S-FPA”. For the same compound, the “Remaining Amount … (%)” value in data set [1] (human plasma, 37° C., 120 min) came out at 40.5 ± 1.6%.
As for `CCOC(=O)OC(C)OC(=O)C(C)c1ccc(CC(C)C)cc1` (stereo not drawn) [Compound N6], in data set [2], the “Remaining Amount … (%)” value was 58.96 ± 3.1%.
As for `CCOC(=O)OC(CC)OC(=O)[C@@H](C)c1ccc(CC(C)C)cc1` (stereo partly drawn) [Compound N9S], the “Isomer (%)” value in data set [3] (MCT, 80° C., Day 0) was 0.95%; in data set [3] (MCT, 80° C., Day 5), 0.95%; in data set [3] (MCT, 80° C., Day 10), 0.94%; in data set [3] (setting [5]), 0.86%; in data set [3] (setting [6]), 1.19%; in data set [3] (setting [7]), 1.78%. For the same compound, the “Isomer (%)” value in data set [3] (Soybean oil, 80° C., Day 0) was 0.91%; in data set [3] (Soybean oil, 80° C., Day 5), 0.90%; in data set [3] (Soybean oil, 80° C., Day 10) it was 0.97%. In addition, the “Purity of related Main Peak (%)” value in data set [3] (MCT, 80° C., Day 0) came out at 99.80%; in data set [3] (MCT, 80° C., Day 5) it was 99.78%; in data set [3] (MCT, 80° C., Day 10), 99.66%; in data set [3] (setting [5]), 99.03%; in data set [3] (setting [6]), 92.78%; in data set [3] (setting [7]), 87.97%. Also, the “Purity of related Main Peak (%)” value was determined as 99.85% in data set [3] (Soybean oil, 80° C., Day 0); 99.57% in data set [3] (Soybean oil, 80° C., Day 5); 99.38% in data set [3] (Soybean oil, 80° C., Day 10). For the same compound, the “Ibuprofen (%)” value in data set [3] (MCT, 80° C., Day 5) is 0.02%; in data set [3] (MCT, 80° C., Day 10), 0.04%; in data set [3] (setting [5]) it was 0.63%; in data set [3] (setting [6]), 5.27%; in data set [3] (setting [7]), 8.76%; in data set [3] (Soybean oil, 80° C., Day 5) it was 0.09%. Further, the “Ibuprofen (%)” value in data set [3] (Soybean oil, 80° C., Day 10) is listed as 0.13%. Besides, the “purity of the isomer” value in data set [3] (80° C.) is “remains basically unchanged”. The “related substances in the oil phase” value in data set [3] (80° C.) was “remain basically unchanged”. The “content of the related substance in the water phase” value in data set [3] (80° C.) is “increases”. In addition, in data set [1] (human plasma), the “metabolic rate (hydrolysis rate)” value is given as “relatively fast metabolic rates close to that of S-FPA”. Also, the “Remaining Amount … (%)” value in data set [1] (human plasma, 37° C., 120 min) amounted to 45.0 ± 2.1%.
Consider `CCOC(=O)OC(CC)OC(=O)C(C)c1ccc(CC(C)C)cc1` (stereo not drawn) [Compound N9], for which the “AUC0-t compared with dexibuprofen salt solution directly injected” value in data set [4] is “no significant difference”. Further, in data set [2], the “Amount of Active Metabolites Produced (%)” value stood at 20.3 ± 0.8% and the “Remaining Amount … (%)” value is on record as 62.5 ± 1.3%.
On to `CCC(OC(=O)OC(C)C)OC(=O)[C@@H](C)c1ccc(CC(C)C)cc1` (stereo partly drawn) [Compound N10S], for which the “metabolic rate (hydrolysis rate)” value in data set [1] (human plasma) is recorded as “relatively slow metabolic rates”.
Regarding `CC(=O)OC(C)OC(=O)C(C)c1ccc(-c2ccccc2)c(F)c1` (stereo not drawn) [FPA, flurbiprofen axetil, reference compound], the “Remaining Amount … (%)” value in data set [1] was 50.9 ± 2.5%.
For the compound `CCOC(=O)O[C@H](C)OC(=O)[C@@H](C)c1ccc(CC(C)C)cc1` [N6(S)-1], the “degradation rate of the peaks in human plasma” value in data set [1] is “different degradation rates”.
Still for that read-out and setting: with `CCOC(=O)O[C@@H](C)OC(=O)[C@@H](C)c1ccc(CC(C)C)cc1` [N6(S)-2] the entry was “different degradation rates”; with `CCOC(=O)O[C@@H](CC)OC(=O)[C@@H](C)c1ccc(CC(C)C)cc1` [N9(S)-2], “different degradation rates”.
Regarding `CC(=O)OC(C)OC(=O)[C@@H](C)c1ccc(-c2ccccc2)c(F)c1` (stereo partly drawn) [S-FPA, reference compound], in data set [1] (human plasma, 37° C., 120 min), the “Amount of Active Metabolites Produced (%)” value is 44.3 ± 2.3% and the “Remaining Amount … (%)” value amounted to 37.4 ± 1.9%.
